Test results: a melting point compilation (Tetko et al.; mined from patent text by program, amines drawn as free bases though some values may be those of a salt)

Row | melting point [°C] | Compound
1 | > 260 | CN(c1ccc(O)cc1)c1nc2ccccc2[nH]1
2 | 249 | CNC(=O)c1cccc2cccc(C(=O)Nc3ccc(F)cc3C)c12
3 | 231 to 234 | O=C(O)Cc1c(C(=O)c2ccc(O)cc2)[nH]c2cc(Cl)ccc12
4 | 247 to 250 | O=Cc1c2ccccc2cc2c(C=O)c3ccccc3cc12
5 | 220 to 221 | CC(C)n1nc(-c2sc(NC(=O)c3ccccc3Cl)nc2-c2ccccc2)ccc1=O
6 | 196 to 200 | O=C(O)Cc1nn(C(c2ccccn2)c2ncno2)c(=O)c2ccccc12 (centres undefined)
7 | 135 to 137 | CCC(CC)C(NS(=O)(=O)c1ccc(C#N)cc1)c1ccnn1-c1ccccc1 (centres undefined)
8 | 142 to 144 | O=Cc1c2ccccc2c(OCCO)c2ccccc12
9 | 203 to 204 | COc1ccc(-c2nc(S(=O)CC3OCCO3)[nH]c2-c2ccc(OC)cc2)cc1 (centres undefined)
10 | 112 to 114 | CC(=O)c1ccc(OCCCCN2C(=O)c3ccccc3C2=O)cc1
11 | 198 to 201 | NC(=O)c1sc2nc(N3CCC(NCC(O)c4ccc5ccccc5n4)CC3)cc(C(F)(F)F)c2c1N (centres undefined)
12 | 154 to 156 | CCOC(=O)CS(=O)(=O)c1cc(NS(=O)(=O)c2cccs2)c2ccccc2c1O
13 | 60 to 62 | COc1ccc(C(=O)c2ccccc2N)cn1
14 | 141 to 142 | Oc1cc2ccccc2cc1OCCOc1ccccc1

The next lines start with the compound.

Row | Compound | melting point [°C]
15 | CC(CF)(CF)C(=O)NC(CO)c1ccc(C(C)(C)C)cc1 (centres undefined) | 141
16 | CSC(=CC(=O)C(F)(F)F)NCc1ccc(Cl)nc1 | 112
17 | CC(C)(C)c1ccc(NC(=O)NCc2ccc3c(c2)CN(C2CCC(=O)NC2=O)C3=O)cc1 (centres undefined) | 254 to 256
18 | CC(C)(C)NS(=O)(=O)c1cccc(NC(=O)c2cnn3c(C(F)(F)F)cc(-c4ccc(C(F)(F)F)cc4)nc23)c1 | 232
19 | COc1cc(-c2c(C)c3cc(O)ccc3n2Cc2ccc(OCCN3CCCCC3)cc2)ccc1O | 161 to 163
20 | O=C(NC(=O)c1c(F)cccc1F)Nc1ccc(SC(F)(F)C(F)F)cc1F | 177 to 179
21 | CSCCNC(=O)c1cccc(-c2ccc3c(c2)C(Oc2ccc(Cl)cc2Cl)CC3)c1 (centres undefined) | 141 to 142
22 | O=C1CCCc2cc(F)cc(F)c21 | 57 to 58
23 | O=[N+]([O-])C(=Cc1ccco1)C1=NCCN1Cc1ccc(Cl)nc1 | 157 to 162
24 | Cc1cccc(C(=O)P2(=O)Oc3ccccc3-c3ccccc32)c1 (centres undefined) | 108 to 111
25 | Cc1c(C)c(N2C(=O)c3cc(Cl)c(Cl)cc3C2=O)c(C)c2c1OC(C)(C)C2c1ccc(F)cc1 (centres undefined) | 232 to 233
26 | COc1ccc(/C=C/c2ccc(Cl)cc2[N+](=O)[O-])c([N+](=O)[O-])c1 | 202
27 | CNC(=O)[C@@H]1CCC[C@@H]1Nc1nc(Nc2cc3c(cc2OC)CCN(CC(=O)N(C)C)CC3)ncc1Cl (relative stereo) | 240
28 | N#Cc1ccc2c(c1)CCCC2(O)c1ccns1 (centres undefined) | 182 to 184
29 | Cc1c(Cl)cc(C(=O)O)c(Cl)c1[N+](=O)[O-] | 210 to 218
30 | COC(=O)c1c(SC)c2cc(OC)ccc2n1C | 89 to 91
31 | NP(=O)(O)CCc1ccccc1 | 226
32 | CCOP(=O)(CNC(=O)Nc1c(C(C)C)cccc1C(C)C)OCC | 132 to 134
33 | Cc1cc(O)cc(Cl)c1Cl | 98 to 100
34 | CN1CCC(=C2c3ccccc3CCc3ccc(C#N)cc32)CC1 | 152 to 154
35 | Cc1ccc(-c2ccc3c(c2)C=C(C(=O)N[C@H]2CC[C@H](CN(C)C4CCOCC4)CC2)CO3)cc1 | 141 to 143
36 | COC(=O)c1ccc(Cc2cccc3ccc(NC(=O)CC4CCCC4)cc23)c(OC)c1 | 172 to 174
37 | CC(=O)CCC(C)C1CC=C2C3=C(CCC21C)C1(C)CCC(O)C(C)(C)C1CC3 (centres undefined) | 183 to 185
38 | CCCN1Cc2cncn2C(c2ccc(C#N)cc2)C1=O (centres undefined) | 97 to 98
39 | COc1ccc(/C=C/c2c(Cl)cccc2Cl)cc1OC1CCCC1 | 47 to 49
